Each compound was assayed on HCV genotype 1b replicon (assay: HCV replicon assay, cell ELISA with antibody to replicon-encoded NS3/4A (genotype 1b replicon)). Conditions: HCV genotype 1b replicon; 96 hours incubation; NS3/4A cell ELISA; read-out: 1b IC50.
Format: cell-based, hepatitis C virus
In short: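 An ELISA on lysed cells, using an antibody against NS3/4A protease, served as the proxy for replicon RNA. Cells had first been exposed for 96 h to serially diluted compound in G418-free conditions. Percent of DMSO control was fitted with a four-parameter function to give IC50.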

Compound	IC50 [nM]
CCOP(=O)(O)CCCN(c1cc2oc(-c3ccc(F)cc3)c(C(=O)NC)c2cc1-c1ccc(OC)c(-c2nc3c(F)cccc3o2)c1)S(C)(=O)=O [Example 844]	3.88

Same assay, conditions: Hepatitis C virus, 96 h, read-out: 1b IC50(nM), HCV genotype 1b replicon; 96 hours incubation; NS3/4A cell ELISA

Compound	IC50 [nM]
CNC(=O)c1c(-c2ccc(F)cc2)oc2cc(N(C)S(C)(=O)=O)c(-c3cccc(-c4cc5cc(F)ccc5n4CCO)c3)cc12 [Example 598]	3.43
CNC(=O)c1c(-c2ccc(F)cc2)oc2cc(N(CC3(C#N)CC3)S(C)(=O)=O)c(-c3ccc(OC)c(-c4nc5c(F)cccc5o4)c3)cc12 [Example 737]	19
CNC(=O)c1c(-c2ccc(F)cc2)oc2cc(N(CC(F)CCF)S(C)(=O)=O)c(-c3ccc(OC)c(-c4nc5c(F)cccc5o4)c3)cc12 (centres unmarked) [Example 810]	13.4
CNC(=O)c1c(-c2ccc(F)cc2)oc2cc(N(CC3CCOC(c4ccccc4)O3)S(C)(=O)=O)c(-c3ccc(OC)c(-c4nc5c(F)cccc5o4)c3)cc12 (centres unmarked) [Example 769]	80.7
CNC(=O)c1c(-c2ccc(F)cc2)oc2cc(N(CCC(C)(C)F)S(C)(=O)=O)c(-c3ccc(OC)c(-c4nc5c(F)cccc5o4)c3)cc12 [Example 796]	14
CNC(=O)c1c(-c2ccc(F)cc2)oc2cc(N(C)S(C)(=O)=O)c(-c3ccc(OC)c(-c4nc5cccc(C#N)c5o4)c3)cc12 [Example 858]	2.8
CNC(=O)c1c(-c2ccc(F)cc2)oc2cc(N(C)S(C)(=O)=O)c(-c3ccc(OCC(F)F)c(-c4cc5ccccc5[nH]4)c3)cc12 [Example 622]	647
CNC(=O)c1c(-c2ccc(F)cc2)oc2cc(N(CC3CC(O)C3)S(C)(=O)=O)c(-c3ccc(OC)c(-c4nc5c(F)cccc5o4)c3)cc12 (centres unmarked) [Example 701]	6.21
CNC(=O)c1c(-c2ccc(F)cc2)oc2cc(N(C)S(C)(=O)=O)c(-c3ccc(OC)c(-c4nc5cc(F)ccc5o4)c3)cc12 [Example 857]	2.6
CNC(=O)c1c(-c2ccc(F)cc2)oc2cc(N(C3CC(C#N)C3)S(C)(=O)=O)c(-c3ccc(OC)c(-c4nc5c(C#N)cccc5o4)c3)cc12 (centres unmarked) [Example 741]	5.85
CNC(=O)c1c(-c2ccc(F)cc2)oc2cc(N(C3COC3)S(C)(=O)=O)c(-c3ccc(OC)c(-c4nc5c(F)cccc5o4)c3)cc12 [Example 720]	41.6
CNC(=O)c1c(-c2ccc(F)cc2)oc2cc(N(C[C@@H](C)NC(=O)[C@@H](NC(=O)OC)C(C)C)S(C)(=O)=O)c(-c3cccc(-c4nc5ncccc5o4)c3)cc12 [Example 836]	82
CNC(=O)c1c(-c2ccc(F)cc2)oc2cc(N(CC(C)N)S(C)(=O)=O)c(-c3cccc(-c4nc5ncccc5o4)c3)cc12 (centres unmarked) [Example 830]	8.47
CNC(=O)c1c(-c2ccc(F)cc2)oc2cc(N(C)S(C)(=O)=O)c(-c3ccc(OC)c(-c4nc5ccc(-c6cncnc6)cc5o4)c3)cc12 [Example 658, 2-(4-fluorophenyl)-5-(4-methoxy-3-(6-(pyrimidin-5-yl)benzo[d]oxazol-2-yl)phenyl)-N-methyl-6-(N-methylmethylsulfonamido) benzofuran-3-carboxamide]	8.53

Same assay, conditions: Hepatitis C virus, 96 h, read-out: Replicon 1b IC50 (nM), HCV genotype 1b replicon cells, 96 hours incubation, NS3/4A ELISA readout

Compound	IC50 [nM]
CNC(=O)c1c(-c2ccc(F)cc2)oc2cc(N(C)S(C)(=O)=O)c(-c3ccc(OC)c(-c4nc5cccc(Cl)c5o4)c3)cc12 [Example 189]	1.9
CNC(=O)c1c(-c2ccc(F)cc2)oc2cc(N(C)S(C)(=O)=O)c(-c3ccc(F)c(-c4nc5cc(F)ccc5[nH]4)c3)cc12 [Example 301]	1.9
CNC(=O)c1c(-c2ccc(F)cc2)oc2cc(N(C)S(C)(=O)=O)c(-c3cc(OC)cc(-c4nc5cc(Cl)cnc5[nH]4)c3)cc12 [Example 317]	2.9
CNC(=O)c1c(-c2ccc(F)cc2)oc2cc(N(C)S(C)(=O)=O)c(-c3cccc(-c4cc5cc(F)ccc5[nH]4)c3)cc12 [Compound 367]	3.9
CNC(=O)c1c(-c2ccc(F)cc2)oc2cc(N(C)S(C)(=O)=O)c(-c3ccc(F)c(-c4nc5ccccc5s4)c3)cc12 [Example 145, 5-[3-(1,3-benzothiazol-2-yl)-4-fluorophenyl]-2-(4-fluorophenyl)-N-methyl-6-[methyl (methylsulfonyl)amino]-1-benzofuran-3-carboxamide]	6
CNC(=O)c1c(-c2ccc(F)cc2)oc2cc(N(C)S(C)(=O)=O)c(-c3ccc(OC)c(-c4nc5cc(F)cc(F)c5o4)c3)cc12 [Example 410]	0.5
CNC(=O)c1c(-c2ccc(F)cc2)oc2cc(N(C)S(C)(=O)=O)c(-c3cccc(-c4nc5cccc(C)c5o4)c3)cc12 [Example 175]	13.8
CNC(=O)c1c(-c2ccc(F)cc2)oc2cc(N(CCCCO)S(C)(=O)=O)c(-c3cccc(-c4nc5ncccc5o4)c3)cc12 [Compound 391]	2.4
CNC(=O)c1c(-c2ccc(F)cc2)oc2cc(N(C)S(C)(=O)=O)c(-c3cc(OC)c(OC)c(-c4nc5ncccc5o4)c3)cc12 [Example 234]	2.7
CNC(=O)c1c(-c2ccc(F)cc2)oc2cc(N(C)S(C)(=O)=O)c(-c3cccc(-c4nc5ccc(CN(C)C)cc5s4)c3)cc12 [Example 298, 5-(3-(6-((dimethylamino)methyl)benzo[d]thiazol-2-yl)phenyl)-2-(4-fluorophenyl)-N-methyl-6-(N-methylmethylsulfonamido)benzofuran-3-carboxamide]	6
CNC(=O)c1c(-c2ccc(F)cc2)oc2cc(N(C)S(C)(=O)=O)c(-c3cc(Cl)cc(-c4nc5ccccc5o4)c3)cc12 [Example 178]	7
CNC(=O)c1c(-c2ccc(F)cc2)oc2cc(N(C)S(C)(=O)=O)c(-c3cccc(-c4nc5ccncc5o4)c3)cc12 [Example 216]	8.2
CNC(=O)c1c(-c2ccc(F)cc2)oc2cc(N(C)S(C)(=O)=O)c(-c3cc(C#N)cc(-c4nc5c(C)ccnc5[nH]4)c3)cc12 [Example 325]	3.2
CNC(=O)c1c(-c2ccc(F)cc2)oc2cc(N(CCCN(C)C)S(C)(=O)=O)c(-c3cccc(-c4nc5ncccc5o4)c3)cc12 [Compound 399]	2.8
CNC(=O)c1c(-c2ccc(F)cc2)oc2cc(N(C)S(C)(=O)=O)c(-c3cccc(CN)c3)cc12 [Example 101, 5-[3-(aminomethyl)phenyl]-2-(4-fluorophenyl)-N-methyl-6-[methyl(methylsulfonyl)amino]-1-benzofuran-3-carboxamide]	505
CNC(=O)c1c(-c2ccc(F)cc2)oc2cc(N(C)S(C)(=O)=O)c(-c3cccc(-c4nc5ncccc5o4)c3)cc12 [Example 155, 2-(4-fluorophenyl)-N-methyl-6-(N-methylmethylsulfonamido)-5-(3-(oxazolo[4,5-b]pyridin-2-yl)phenyl)benzofuran-3-carboxamide]	1.1
CCCCN(c1cc2oc(-c3ccc(F)cc3)c(C(=O)NC)c2cc1-c1ccccc1)S(C)(=O)=O [Example 17, 6-[butyl (methylsulfonyl)amino]-2-(4-fluorophenyl)-N-methyl-5-phenyl-1-benzofuran-3-carboxamide]	48
CNC(=O)c1c(-c2ccc(F)cc2)oc2cc(N(C)S(C)(=O)=O)c(-c3cc(OC)cc(-c4nc5cccnc5[nH]4)c3)cc12 [Example 314]	1.5
CNC(=O)c1c(-c2ccc(F)cc2)oc2cc(N(C)S(C)(=O)=O)c(-c3cccc(-c4nc5cc(F)ccc5[nH]4)c3)cc12 [Example 150, 5-[3-(5-fluoro-1H-benzimidazol-2-yl)phenyl]-2-(4-fluorophenyl)-N-methyl-6-[methyl(methylsulfonyl)amino]-1-benzofuran-3-carboxamide]	1
CNC(=O)c1c(-c2ccc(F)cc2)oc2cc(N(CCN(C)c3ccccc3)S(C)(=O)=O)c(-c3ccccc3)cc12 [Example 3, 2-(4-fluorophenyl)-N-methyl-6-[{2-[methyl(phenyl)amino]ethyl} (methylsulfonyl)amino]-5-phenyl-1-benzofuran-3-carboxamide]	80
CNC(=O)c1c(-c2ccc(F)cc2)oc2cc(N(C)S(C)(=O)=O)c(-c3cccc(-c4nc5ccc(CN)cc5s4)c3)cc12 [Example 297, 5-(3-(6-(aminomethyl)benzo[d]thiazol-2-yl)phenyl)-2-(4-fluorophenyl)-N-methyl-6-(N-methylmethylsulfonamido)benzofuran-3-carboxamide]	20.5
CNC(=O)c1c(-c2ccc(F)cc2)oc2cc(N(C)S(C)(=O)=O)c(-c3cccc(-c4nc5ccccc5[nH]4)c3)cc12 [Example 151, 5-[3-(1H-benzimidazol-2-yl)phenyl]-2-(4-fluorophenyl)-N-methyl-6-[methyl (methylsulfonyl)amino]-1-benzofuran-3-carboxamide]	5
CNC(=O)c1c(-c2ccc(F)cc2)oc2cc(N(C)S(C)(=O)=O)c(-c3cc(F)cc(-c4nc5c(C)cccc5o4)c3)cc12 [Example 165]	4.7
CONC(=O)c1c(-c2ccc(F)cc2)oc2cc(N(C)S(C)(=O)=O)c(-c3ccccc3F)cc12 [Example 90, 5(2-fluorophenyl)-2-(4-fluorophenyl)-N-methoxy-6-[methyl(methylsulfonyl)amino]-1-benzofuran-3-carboxamide]	197
CCOC(=O)CN(c1cc2oc(-c3ccc(F)cc3)c(C(=O)NC)c2cc1-c1ccccc1)S(C)(=O)=O [Example 41, ethyl N-[2-(4-fluorophenyl)-3-(methylcarbamoyl)-5-phenyl-1-benzofuran-6-yl]-N-(methylsulfonyl) glycinate]	> 2000
CNC(=O)c1c(-c2ccc(F)cc2)oc2cc(N(C)S(C)(=O)=O)c(-c3cc(F)cc(-c4nc5ccc(Cl)cc5o4)c3)cc12 [Example 163]	8.5
CNC(=O)c1c(-c2ccc(F)cc2)oc2cc(N(C)S(C)(=O)=O)c(-c3ccc(OC)c(-c4nc5cc(Cl)cnc5o4)c3)cc12 [Example 226]	4
CNC(=O)c1c(-c2ccc(F)cc2)oc2cc(N(C)S(C)(=O)=O)c(-c3ccc(F)c(-c4nc5c(C)ccnc5[nH]4)c3)cc12 [Example 310]	1.8
CNC(=O)c1c(-c2ccc(F)cc2)oc2cc(N(C)S(C)(=O)=O)c(-c3ccc(OC(F)(F)F)c(-c4nc5cccnc5o4)c3)cc12 [Example 231]	6.6

— patent publication US20120328569A1, “INHIBITORS OF HEPATITIS C VIRUS NS5B POLYMERASE” (priority 2010, published 2012)
